{"source": "patent US20230064324A1", "about": "“NEW USES FOR STEVIOL” (SUNTORY HOLDINGS LIMITED, priority 2019, published 2023)", "key": {"CHOP": {"test_system": "CHOP", "experiment": "CHOP expression in neuronal cells under endoplasmic reticulum stress (RT-PCR)", "assay_type": "cell-based, Rat", "conditions": "pretreatment 1 h, tunicamycin 0.16 μM 24 h", "experimental": "Neuronal cells were prepared as follows. PC12 cells were reconstituted by seeding at 2×10^6 cells/flask to a collagen IV-coated flask, and precultured for 3 days in the growth medium in a CO2 incubator.\nThe lysate was preserved at −80° C. until use.\nThe internal standard gene used was GAPDH gene."}, "PC12 cells (clone HS)": {"test_system": "PC12 cells (clone HS)", "experiment": "Cytotoxicity of steviol to PC12 cells (WST-8 viable cell count)", "assay_type": "cell-based, Rat", "conditions": "for Relative viable cell count (%): 3 days, Control=100%", "experimental": "PC12 cells (clone HS, Cat. No. JCRB0266, JCRB) were precultured for 3 days in a collagen IV-coated flask (T-75, Corning Inc., Cat. No. 354523) using a growth medium (DMEM medium (low glucose, Cat. No. 08456-65, Nacalai Tesque, Inc.) supplemented with 10% FBS (Cat. No. 172012, Sigma-Aldrich Co., LLC), 10% horse serum (Cat. No. 16050-122, Thermo Fisher Scientific Inc.), and 1% penicillin-streptomycin) in a CO2 incubator (37° C., 5% CO2; the same holds true for the description below). […] A vehicle control composed of a test medium supplemented with 0.1% DMSO (final concentration) was used as a negative control."}}}
{"smiles": "C=C1C[C@@]23CC[C@H]4[C@@](C)(CCC[C@@]4(C)C(=O)O)[C@@H]2CC[C@]1(O)C3", "note": "[Steviol]", "values": [{"measurement": "Expression level of CHOP in neuronal cells (relative to GAPDH, untreated=1)", "setting": "CHOP; steviol 6.25 μg/mL", "value": 6.61}, {"measurement": "Expression level of CHOP in neuronal cells (relative to GAPDH, untreated=1)", "setting": "CHOP; steviol 12.5 μg/mL", "value": 6.55}, {"measurement": "Expression level of CHOP in neuronal cells (relative to GAPDH, untreated=1)", "setting": "CHOP; steviol 25 μg/mL", "value": 6.24}, {"measurement": "Expression level of CHOP in neuronal cells (relative to GAPDH, untreated=1)", "setting": "CHOP; steviol 50 μg/mL", "value": 5.79}, {"measurement": "cytotoxicity to PC12 cells (in words)", "setting": "PC12 cells (clone HS); 100 μg/mL steviol", "value": "no particular cytotoxicity to be noted was found"}, {"measurement": "Relative viable cell count (%)", "setting": "PC12 cells (clone HS); steviol 0.01 μg/mL", "value": 102.8, "unit": "%"}, {"measurement": "Relative viable cell count (%)", "setting": "PC12 cells (clone HS); steviol 0.1 μg/mL", "value": 97.0, "unit": "%"}, {"measurement": "Relative viable cell count (%)", "setting": "PC12 cells (clone HS); steviol 1 μg/mL", "value": 95.3, "unit": "%"}, {"measurement": "Relative viable cell count (%)", "setting": "PC12 cells (clone HS); steviol 10 μg/mL", "value": 99.6, "unit": "%"}, {"measurement": "Relative viable cell count (%)", "setting": "PC12 cells (clone HS); steviol 100 μg/mL", "value": 96.9, "unit": "%"}]}
